According to publication PMC12207250, “Investigations of amination reactions on an antimalarial 1,2,4-triazolo[4,3-a]pyrazine scaffold” (Beilstein Journal of Organic Chemistry, 2025):
Read-outs that look alike come from different tables or passages of the source. One block for each molecule: values may come before it.

Experiments:
[1] = test system: P. falciparum 3D7 (chloroquine-sensitive strain); assay: In vitro antiplasmodial image-based assay; format: cell-based, Plasmodium falciparum; conditions: for IC50 / inhibition at 80 µM: Plasmodium falciparum; for IC50: read-out: Pf 3D7 IC50 ± SD; for Selectivity index (fold difference) IC50(HEK293)/IC50(Pf 3D7): HEK293 versus Pf 3D7; for inhibition at 80 µM: 3D7, accurate IC50 not determinable, read-out: growth inhibition against Pf 3D7 at the assay top dose
Method: Plasmodium falciparum 3D7 were cultured in RPMI1640 (Life Technologies, Camarillo, CA, USA) supplemented with 2.5 mg/mL Albumax II, 5% AB human serum, 25 mM HEPES, and 0.37 mM hypoxanthine. Human red blood cells (RBC) (O+) were supplied by Australian Red Cross LifeBlood in accordance with agreement 23-05QLD-23. Use of human RBC for antiplasmodial experimentation was in accordance with Griffith University Human Ethics Exemption Approval #03/08/11019. Ring-stage parasites were treated with compounds following two rounds of sorbitol synchronisation, as previously described. Puromycin, chloroquine, pyrimethamine, and dihydroartemisinin were used as reference compounds. Following incubation of assay plates for 72 h at 37 °C, and 5% CO2 and 5% O2, parasites were stained with 2-(4-amidinophenyl)-1H-indole-6-carboxamidine (DAPI) and imaged using an Opera PhenixPlus™ High Content Screening System (PerkinElmer, Waltham, MA, USA). Images were analysed using the Harmony software (PerkinElmer, Waltham, MA, USA). […]
In vitro antiplasmodial image-based assay
Plasmodium falciparum 3D7 were cultured in RPMI1640 (Life Technologies, Camarillo, CA, USA) supplemented with 2.5 mg/mL Albumax II, 5% AB human serum, 25 mM HEPES, and 0.37mM hypoxanthine. Human red blood cells (RBC) (O+) were supplied by Australian Red Cross LifeBlood in accordance with agreement 23-05QLD-23. Use of human RBC for anti-plasmodial experimentation was in accordance with Griffith University Human Ethics Exemption Approval #03/08/11019. Ring stage parasites were treated with compounds following two rounds of sorbitol synchronisation, as previously described. Puromycin, chloroquine, pyrimethamine, and dihydroartemisinin were used as reference compounds. Following incubation of assay plates for 72 h at 37 °C, and 5% CO2 and 5% O2, parasites were stained with 2-(4-amidinophenyl)-1H-indole-6-carboxamidine (DAPI) and imaged using an Opera PhenixPlusTM High Content Screening System (PerkinElmer, Waltham, MA, USA).
Images were analysed using Harmony software (PerkinElmer, Waltham, MA, USA).

HEK293 cells = assay: In vitro cytotoxicity assay (resazurin); format: cell-based, human; conditions: for cytotoxicity against HEK293 cells at the top concentration tested (in words): 80 µM
Method: (§1) Human embryonic kidney (HEK293) cells were maintained in DMEM (Life Technologies, Camarillo, CA, USA) containing 10% FBS (Hyclone™ ThermoFisher, Melbourne, Australia). Cytotoxicity testing was undertaken as previously described. In brief, 5 μL of test compound was added to the well of black/clear tissue culture-treated, 384-well plates containing 2000 adherent HEK293 cells/well and incubated 72 h at 37 °C in 5% CO2. […], 5 µL of 600 µM resazurin, diluted in growth media, was added. Plates were further incubated for 6 h and measured for fluorescence at 530 nm excitation and 595 nm emission. The % inhibition was calculated using 0.4% DMSO (no inhibition) and 50 μM puromycin (100% inhibition) data. Puromycin was included as a reference compound to assess assay validity. IC50 values were obtained by plotting % inhibition against log dose using GraphPad Prism v.6 (San Diego, CA, USA) nonlinear regression with a variable slope plot.
In vitro cytotoxicity assay
Human embryonic kidney (HEK293) cells were maintained in DMEM (Life
Technologies, Camarillo, CA, USA) containing 10% FBS (Hyclone™ ThermoFisher, Melbourne, Australia). Cytotoxicity testing was undertaken as previously described.
as §1, with “In brief,” for “Human embryonic kidney (HEK293) cells were maintained in DMEM (Life Technologies, Camarillo, CA, USA) containing 10% FBS (Hyclone™ ThermoFisher, Melbourne, Australia). Cytotoxicity testing was undertaken as previously described. In brief,”, “and incubated for 72 h” for “and incubated 72 h”, “slope plot. […]” for “slope plot.”

[2] = P. falciparum 3D7, ring-stage, 72 h, mean of duplicate, n = 1
[3] = Homo sapiens, HEK293, at top concentration 80 µM, 72 h, mean of duplicate, n = 1, read-out: HEK293 % inhibition ± SD
[4] = reference compounds, P. falciparum 3D7, 72 h

IC50 [1, 2]: 9.9 ± 1.27 µM
SMILES: Clc1ccc(-c2nnc3c(NCCN4CCNCC4)nccn23)cc1 [Compound 14]
inhibition at 80 µM (HEK293 cells; [3]): 84 ± 4%

IC50 [1, 4]: 0.0338 ± 0.00566 µM
SMILES: COc1ccc(C[C@H](N)C(=O)N[C@H]2[C@@H](O)[C@H](n3cnc4c(N(C)C)ncnc43)O[C@@H]2CO)cc1 [PMY, puromycin, reference compound]
Selectivity index (fold difference) IC50(HEK293)/IC50(Pf 3D7) [1]: 13
IC50 (HEK293 cells; Homo sapiens, HEK293, reference compounds, 72 h, read-out: HEK293 IC50 ± SD): 0.43 ± 0.0283 µM

IC50 [1, 2]: 11.3 ± 0.57 µM
SMILES: CCN(CC)CCCNc1nccn2c(-c3ccc(Cl)cc3)nnc12 [Compound 13]
inhibition at up to 80 µM (HEK293 cells; [3]): 48 ± 5%

IC50 [1, 4]: 0.000475 ± 9e-05 µM
SMILES: C[C@H]1[C@@H](O)O[C@@H]2O[C@@]3(C)CC[C@H]4[C@H](C)CC[C@@H]1[C@@]24OO3 [DHA, dihydroartemisinin, reference compound]

IC50 ([1]; 3D7, 72 h): 0.0212 ± 0.00566 µM
SMILES: CCN(CC)CCCC(C)Nc1ccnc2cc(Cl)ccc12 (centres unmarked) [CQ, chloroquine, reference compound]

IC50 [1, 2]: 22 ± 1.56 µM
SMILES: CN(C)CCCNc1nccn2c(-c3ccc(Cl)cc3)nnc12 [Compound 12]
Selectivity index (fold difference) IC50(HEK293)/IC50(Pf 3D7) [1]: >4

IC50 [1, 2]: 22 ± 2.4 µM
SMILES: CCN(CC)CCNc1nccn2c(-c3ccc(Cl)cc3)nnc12 [Compound 11]
Selectivity index (fold difference) IC50(HEK293)/IC50(Pf 3D7) [1]: >4

IC50 [1, 4]: 0.0112 ± 0.00212 µM
SMILES: CCc1nc(N)nc(N)c1-c1ccc(Cl)cc1 [PMA, pyrimethamine, reference compound]

IC50 [1, 2]: 23.3 ± 1.7 µM
SMILES: CN(C)CCNc1nccn2c(-c3ccc(Cl)cc3)nnc12 [Compound 10, N^1-(3-(4-Chlorophenyl)-[1,2,4]triazolo[4,3-a]pyrazin-8-yl)-N^2,N^2-dimethylethane-1,2-diamine]
Selectivity index (fold difference) IC50(HEK293)/IC50(Pf 3D7) [1]: >3

IC50 [1, 2]: 12.6 ± 1.9 µM
SMILES: Clc1ccc(-c2nnc3cncc(Cl)n23)cc1 [Compound 1, 5-chloro-3-(4-chlorophenyl)-[1,2,4]triazolo[4,3-a]pyrazine]
Selectivity index (fold difference) IC50(HEK293)/IC50(Pf 3D7) [1]: >6
cytotoxicity against HEK293 cells at the top concentration tested (in words) (HEK293 cells): no cytotoxicity

More lines, now with the values behind:

SMILES: Clc1ccc(-c2nnc3c(NCCc4ccccc4)nccn23)cc1 [Compound 2, 3-(4-Chlorophenyl)-N-phenethyl-[1,2,4]triazolo[4,3-a]pyrazin-8-amine]
inhibition at 80 µM [1]: < 100%
cytotoxicity against HEK293 cells at the top concentration tested (in words) (HEK293 cells): no cytotoxicity

SMILES: Fc1ccc(CNc2nccn3c(-c4ccc(Cl)cc4)nnc23)cc1 [Compound 5]
inhibition at 80 µM [1]: < 100%

SMILES: CCCNc1nccn2c(-c3ccc(Cl)cc3)nnc12 [Compound 6]
inhibition at 80 µM [1]: < 100%

SMILES: CC(C)(C)OC(=O)NCCCCNc1nccn2c(-c3ccc(Cl)cc3)nnc12 [Compound 15, tert-Butyl(4-((3-(4-chlorophenyl)-[1,2,4]triazolo[4,3-a]pyrazin-8 yl)amino)butyl)carbamate]
inhibition at 80 µM [1]: < 100%
inhibition at 80 µM (HEK293 cells; [3]): 57 ± 4%

SMILES: COCCNc1nccn2c(-c3ccc(Cl)cc3)nnc12 [Compound 9]
inhibition at 80 µM [1]: < 100%

SMILES: Clc1ccc(-c2nnc3c(NCc4ccccc4)nccn23)cc1 [Compound 4]
inhibition at 80 µM [1]: < 100%

SMILES: Fc1ccc(CCNc2nccn3c(-c4ccc(Cl)cc4)nnc23)cc1 [Compound 3]
inhibition at 80 µM [1]: < 100%
cytotoxicity against HEK293 cells at the top concentration tested (in words) (HEK293 cells): some inhibition
inhibition at 80 µM (HEK293 cells; [3]): 74 ± 7%

SMILES: CC(C)CCNc1nccn2c(-c3ccc(Cl)cc3)nnc12 [Compound 7, 3-(4-Chlorophenyl)-N-isopentyl-[1,2,4]triazolo[4,3-a]pyrazin-8-amine]
inhibition at 80 µM [1]: < 100%

SMILES: Clc1ccc(-c2nnc3c(NC4CCCCC4)nccn23)cc1 [Compound 8]
inhibition at 80 µM [1]: < 100%
